Measurements reported in PubChem BioAssay (NCI).
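Five concentrations, 48 hours, 96-well plates. Abbreviation: GI50, concentration required for 50% inhibition of growth. TGI: concentration producing complete growth inhibition.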

Key:
Experiment in all cases: NCI anticancer screen, dose series, 48 h
SK-MEL-2 melanoma = test system: SK-MEL-2 melanoma
SK-OV-3 ovarian = test system: SK-OV-3 ovarian
HL-60(TB) leukemia = test system: HL-60(TB) leukemia
SR leukemia = test system: SR leukemia
OVCAR-3 ovarian = test system: OVCAR-3 ovarian
MDA-N = test system: MDA-N
EKVX NSCLC = test system: EKVX NSCLC
OVCAR-5 ovarian = test system: OVCAR-5 ovarian
SF-539 CNS = test system: SF-539 CNS
A498 renal = test system: A498 renal
MOLT-4 leukemia = test system: MOLT-4 leukemia

| Compound | TGI (SK-MEL-2 melanoma) [µM] | TGI (SK-OV-3 ovarian) [µM] | TGI (HL-60(TB) leukemia) [µM] | TGI (SR leukemia) [µM] | TGI (OVCAR-3 ovarian) [µM] | TGI (MDA-N) [µM] | TGI (EKVX NSCLC) [µM] | TGI (OVCAR-5 ovarian) [µM] | TGI (SF-539 CNS) [µM] | TGI (A498 renal) [µM] | TGI (MOLT-4 leukemia) [µM] | GI50 (SK-MEL-2 melanoma) [nM] | GI50 (SK-OV-3 ovarian) [nM] | GI50 (HL-60(TB) leukemia) [pM] | GI50 (OVCAR-3 ovarian) [nM] | GI50 (EKVX NSCLC) [µM] | GI50 (OVCAR-5 ovarian) [pM] | GI50 (SF-539 CNS) [pM] | GI50 (A498 renal) [pM] | GI50 (MOLT-4 leukemia) [pM] |
| --- | --- | --- | --- | --- | --- | --- | --- | --- | --- | --- | --- | --- | --- | --- | --- | --- | --- | --- | --- | --- |
| O=C(Oc1ccccn1)c1cc2cc(CCl)ccc2oc1=O | > 100 | > 100 | > 100 | > 100 | 38.1 | > 100 | > 100 | > 100 | > 100 | > 100 | > 100 | – | – | – | – | – | – | – | – | – |
| Nc1nc(SC/C=C/c2ccccc2)c2[nH]cnc2n1 | > 100 | > 100 | > 100 | > 100 | > 100 | > 100 | > 100 | > 100 | > 100 | > 100 | > 100 | – | – | – | – | – | – | – | – | – |
| CCOC(=O)NC(Nc1ccc(S(=O)(=O)Nc2nc(C)cc(C)n2)cc1)(C(=O)OCC)C(F)(F)F (configuration not stated) | > 100 | > 100 | > 100 | 27.4 | > 100 | > 100 | > 100 | > 100 | > 100 | > 100 | > 100 | – | – | – | – | – | – | – | – | – |
| CCC(/C=C/C1OC(=O)C=CC1C)=C\C(C)C/C=C/C(C)=C/C(C)C(=O)C(C)C(O)C(C)C/C(C)=C/C(=O)O (configuration not stated) | – | 14.3 | – | 2.28e-05 | – | 0.000118 | 11.4 | 15.5 | – | – | – | 0.0281 | 0.0954 | < 1 | 0.0145 | 1.29 | < 1 | 2.02 | 1.31 | 2.33 |
| CC(CO)(CO)N1C(=O)C2C3C=CC(C3)C2C1=O (configuration not stated) | > 100 | > 100 | > 100 | > 100 | > 100 | > 100 | > 100 | > 100 | > 100 | > 100 | > 100 | – | – | – | – | – | – | – | – | – |
| O=C(O)C(NCc1ccccc1)C(NCc1ccccc1)C(=O)O (configuration not stated) | > 100 | > 100 | > 100 | > 100 | > 100 | > 100 | > 100 | – | > 100 | > 100 | > 100 | – | – | – | – | – | – | – | – | – |
| Cc1nc2c(nc1C)-c1[nH]c3c(c1C(=O)C2=O)CCCC3=O | 3.29 | 6.87 | 5.78 | 6.4 | 2.07 | 1.9 | 3.71 | 4.7 | 3.12 | 21.5 | 5.67 | – | – | – | – | – | – | – | – | – |
| O=c1c(/C=C/c2c(O)ccc3ccccc23)nnc2sc(-c3cccc(Br)c3)nn12 | > 100 | > 100 | 26.6 | 41.1 | > 100 | > 100 | 98.1 | > 100 | > 100 | > 100 | 40.3 | – | – | – | – | – | – | – | – | – |
| CCOC1OC(=O)c2cc3ccc4c(c3c(-c3ccc5c(c3)OCO5)c21)OCO4 (configuration not stated) | > 100 | > 29.9 | > 100 | 5.43 | 3.77 | 5.2 | > 100 | > 100 | 20.4 | > 100 | > 100 | – | – | – | – | – | – | – | – | – |
| CSc1ncnc2c1ncn2CCC(=O)OC(C)(C)C | – | > 100 | > 100 | > 100 | > 100 | > 100 | > 100 | > 100 | > 100 | > 100 | > 100 | – | – | – | – | – | – | – | – | – |
| Cc1nn(-c2ccccc2)c2c1C(c1ccc(Cl)cc1)NC(=S)N2 (configuration not stated) | 38.6 | 59.8 | 95.8 | > 100 | > 100 | 93.6 | 90.8 | 89.4 | 37.4 | 67.1 | > 100 | – | – | – | – | – | – | – | – | – |
| Fc1cc(-c2cc(-c3ccccc3)no2)c(Cl)cc1Cl | > 40.1 | > 50.3 | > 37.7 | > 41.8 | > 40.1 | > 68.9 | > 51.9 | > 42.9 | > 17.2 | > 54 | > 47.8 | – | – | – | – | – | – | – | – | – |
| CN(C)CCCN1CCC2(CCC(C(C)(C)C)CC2)CC1 | 3.26 | 22.8 | 2.23 | 4.85 | 10.9 | 2.44 | 19.4 | 9.08 | 3.89 | 4.6 | 5.74 | – | – | – | – | – | – | – | – | – |
| CCOC(=O)CC[C@H](NC(=O)[C@H](N)Cc1ccc(N(CCCl)CCCl)cc1)C(=O)OCC | 63.2 | > 72.8 | 36.6 | > 100 | 30.2 | > 50.8 | > 67.9 | 65 | 30.8 | > 100 | 6.85 | – | – | – | – | – | – | – | – | – |
| CC1OC(OC2C(O)COC(OC3C(C)OC(OC4C(OC(=O)[C@]56CCC(C)(C)C[C@@H]5C5=CCC7[C@@]8(C)C[C@H](O)[C@H](OC9OC(CO)C(O)C(O)C9O)[C@@](C)(CO)[C@@H]8CC[C@@]7(C)[C@]5(C)CC6)OCC(O)C4O)C(O)C3OC3OCC(O)(CO)C3O)C2O)C(O)C(O)C1O (some centres not stated) | 30.8 | 34.8 | 30.2 | 38 | 40.8 | 32.5 | 15.8 | 24.3 | 44.8 | 13.6 | 46.5 | – | – | – | – | – | – | – | – | – |
| Cc1c(N=Nc2ccc(Cl)cc2)c(-c2ccccc2)n(C2OC(CO)C(O)C(O)C2O)c(=S)c1C#N (configuration not stated) | 37.5 | 30.6 | > 100 | > 100 | 32.5 | 35.9 | – | 33.7 | 41 | 21.5 | 33.2 | – | – | – | – | – | – | – | – | – |
| CCOC(=O)c1nnc2c(C(=O)OCC)c3ccccc3n2c1N | > 100 | 91.8 | 5.52 | > 100 | > 100 | > 100 | > 100 | > 100 | > 100 | 60.8 | > 100 | – | – | – | – | – | – | – | – | – |
